Results as given in paper PMC10485003, “Antibiotic hyper-resistance in a class I aminoacyl-tRNA synthetase with altered active site signature motif” (Nature Communications, 2023).
Several values for one entry are separate records, joined by “and”; a condition that tells them apart may be missing. Equal entries are not always repeated. Where two headings read alike, the source gives them in different places.

What was measured:
IleRS2 = test: Mupirocin inhibition of IleRS2 compared with IleRS1; format: biochemical, bacteria; settings: IleRS1 strongly, IleRS2 modestly inhibited
wt-HVGH PmIleRS2 = settings: cited from earlier work
SgIleRS2 = settings: non-canonical motif; cited from earlier work
ScIleRS2 [1] = settings: activation step, absence of tRNA; cited from earlier work
ScIleRS2 [2] = settings: aminoacylation, with tRNA; cited from earlier work
E. coli IleRS1 [3] = tested on: E. coli IleRS1; design: method as in earlier work; settings: activation step, absence of tRNA; cited from earlier work
E. coli IleRS1 [4] = tested on: E. coli IleRS1; design: method as in earlier work; settings: aminoacylation, with tRNA; cited from earlier work
IleRS1 = target: IleRS1; design: method as in PMID 6258580, PMID 9822630; settings: type 1 proteins strongly inhibited; cited from earlier work

**Q.** Which “difference in Ki between IleRS1 and IleRS2” value (IleRS2) does the source give for `C/C(=C\C(=O)OCCCCCCCCC(=O)O)C[C@@H]1OC[C@H](C[C@@H]2O[C@H]2[C@@H](C)[C@H](C)O)[C@@H](O)[C@H]1O` [mupirocin] here?
**A.** The value was 10^3−10^5 fold.

**Q.** And the Ki (wt-HVGH PmIleRS2; amino acid activation step, ATP/PPi exchange assay, Ile varied, read-out: KI (MUP)Ile)?
**A.** The Ki was 1080 ± 60 nM.

**Q.** And the Ki (wt-HVGH PmIleRS2; mupirocin inhibition towards Ile, GraphPad Prism output, Repl1-Repl3, Table 1 footnote b gives this enzyme's values as from ref 21, read-out: KI, single replicates)?
**A.** Its Ki is 1040 nM and 990 nM and 1180 nM.

**Q.** And the Ki for mupirocin (SgIleRS2)?
**A.** Its Ki for mupirocin is “mM range”.

**Q.** What about the Ki (ScIleRS2 [1]) of the same molecule?
**A.** Its Ki is 8600 nM.

**Q.** And the Ki (ScIleRS2 [2])?
**A.** The Ki was 15000 nM.

**Q.** What about the Ki (E. coli IleRS1 [3]) of the same molecule?
**A.** The Ki was 6 nM.

**Q.** What about the Ki (E. coli IleRS1 [4]) of the same molecule?
**A.** The Ki was 2.5 nM.

**Q.** What about the Ki (IleRS1) of the same molecule?
**A.** Its Ki is “low nanomolar range”.
